Results reported in US20200405697A1, “Antitumor Agent” (Taiho Pharmaceutical Co., Ltd, priority 2017, published 2020).

What follows are compounds tested against T1, human RNR (histidine tagged human M1 and human M2 proteins) (Homo sapiens, UniProt P23921) (assay: Human RNR inhibition effect (dCDP formation from CDP)). Details: 10 μM CDP, 37° C. for 30 minutes, read-out: RNR inhibitory activity IC50.
T1 construct: made in house; host or cells: Escherichia coli
T1 sequence (P23921 1-792): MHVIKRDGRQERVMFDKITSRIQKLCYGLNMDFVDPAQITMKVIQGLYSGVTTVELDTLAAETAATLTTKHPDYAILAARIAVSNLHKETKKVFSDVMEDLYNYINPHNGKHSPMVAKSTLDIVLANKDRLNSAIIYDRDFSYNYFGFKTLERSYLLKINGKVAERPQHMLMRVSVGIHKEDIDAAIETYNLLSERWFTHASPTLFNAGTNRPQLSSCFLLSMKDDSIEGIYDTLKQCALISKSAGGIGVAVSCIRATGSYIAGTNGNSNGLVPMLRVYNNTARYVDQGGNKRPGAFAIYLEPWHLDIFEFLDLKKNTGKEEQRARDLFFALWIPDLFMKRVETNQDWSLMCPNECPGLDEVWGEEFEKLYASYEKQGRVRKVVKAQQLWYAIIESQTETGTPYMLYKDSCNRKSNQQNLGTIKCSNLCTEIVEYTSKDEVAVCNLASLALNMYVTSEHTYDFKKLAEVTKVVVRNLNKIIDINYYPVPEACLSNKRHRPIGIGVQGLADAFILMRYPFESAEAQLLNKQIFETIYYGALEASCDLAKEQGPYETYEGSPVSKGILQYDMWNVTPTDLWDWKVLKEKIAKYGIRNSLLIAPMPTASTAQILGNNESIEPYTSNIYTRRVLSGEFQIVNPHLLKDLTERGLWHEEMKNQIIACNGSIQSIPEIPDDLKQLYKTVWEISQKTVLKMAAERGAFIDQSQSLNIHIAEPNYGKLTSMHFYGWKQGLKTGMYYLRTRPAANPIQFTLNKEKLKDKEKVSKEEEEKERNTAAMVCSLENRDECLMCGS
Assay type: biochemical
Procedure, shortened: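 His-tagged human M1 (isoform 1) and N-terminal 59-aa-truncated M2 (isoform 2), E. coli-expressed, Ni-purified, preincubated 20 min with compound (1% DMSO). Reaction with 10 μM CDP, 2 mM ATP, 0.24 mM NADPH, 6 mM DTT, 4 mM Mg acetate, 100 mM KCl, 50 mM HEPES pH 7.2, 30 min at 37° C. dCDP formed quantified by reverse-phase HPLC after heat stop.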

Question: For COc1ccc(-c2ccc(F)c([C@@H](C)[C@H](NS(=O)(=O)c3ccc(Cl)cc3OC)c3n[nH]c(=O)o3)c2C)cc1 [Example 298, 4-chloro-N-((1S,2R)-2-(4-fluoro-4′-methoxy-2-methyl-[1,1′-biphenyl]-3-yl)-1-(5-oxo-4,5-dihydro-1,3,4-oxadiazol-2-yl)propyl)-2-methoxybenzenesulfonamide], which IC50 is on record?
Answer: 300 nM

Question: Which IC50 does the source give for CNC(=O)c1cc(Cl)ccc1S(=O)(=O)N[C@H](c1n[nH]c(=O)o1)[C@H](C)c1c(F)ccc(C)c1C [Example 277, 5-chloro-2-(N-((1S,2R)-2-(6-fluoro-2,3-dimethylphenyl)-1-(5-oxo-4,5-dihydro-1,3,4-oxadiazol-2-yl)propyl)sulfamoyl)-N-methylbenzamide] here?
Answer: 370 nM

Question: For COc1cc(Cl)ccc1S(=O)(=O)N[C@H](c1n[nH]c(=O)o1)[C@H](C)c1c(F)ccc(-c2cc(F)cc(F)c2)c1C [Example 299, 4-chloro-2-methoxy-N-((1S,2R)-1-(5-oxo-4,5-dihydro-1,3,4-oxadiazol-2-yl)-2-(3′,4,5′-trifluoro-2-methyl-[1,1′-biphenyl]-3-yl)propyl)benzenesulfonamide], which IC50 is on record?
Answer: 940 nM

Question: COc1ccc(-c2ccc(F)c([C@@H](C)[C@H](NS(=O)(=O)c3ccc(Cl)cc3OC)c3n[nH]c(=O)o3)c2C)cn1 [Example 314, 4-chloro-N-((1S,2R)-2-(6-fluoro-3-(6-methoxypyridin-3-yl)-2-methylphenyl)-1-(5-oxo-4,5-dihydro-1,3,4-oxadiazol-2-yl)propyl)-2-methoxybenzenesulfonamide] was tested. Which IC50 did it give?
Answer: 260 nM

Question: With CC(O)c1c(Cl)ccc(S(=O)(=O)N[C@H](c2n[nH]c(=O)o2)[C@H](C)c2cccc3c2CCC3)c1Cl (stereo partly drawn) [Example 201, 2,4-dichloro-N-((1S,2R)-2-(2,3-dihydro-1H-inden-4-yl)-1-(5-oxo-4,5-dihydro-1,3,4-oxadiazol-2-yl)propyl)-3-(1-hydroxyethyl)benzenesulfonamide] as the compound, how does the IC50 read?
Answer: 170 nM

Question: Cc1ccc(F)c([C@@H](C)[C@H](NS(=O)(=O)c2ccc(Cl)c(C(=O)N3C4CCC3COC4)n2)c2n[nH]c(=O)o2)c1C [Example 116, 6-(3-oxa-8-azabicyclo[3.2.1]octane-8-carbonyl)-5-chloro-N-((1S,2R)-2-(6-fluoro-2,3-dimethylphenyl)-1-(5-oxo-4,5-dihydro-1,3,4-oxadiazol-2-yl)propyl)pyridine-2-sulfonamide] was tested. Which IC50 did it give?
Answer: 70 nM

Question: Cc1ccc(F)c([C@@H](C)[C@H](NS(=O)(=O)c2ccc(Cl)cc2C#N)c2n[nH]c(=O)o2)c1C [Example 84, 4-chloro-2-cyano-N-((1S,2R)-2-(6-fluoro-2,3-dimethylphenyl)-1-(5-oxo-4,5-dihydro-1,3,4-oxadiazol-2-yl)propyl)benzenesulfonamide] was tested. Which IC50 did it give?
Answer: 360 nM

Question: COc1c(S(=O)(=O)N[C@H](c2n[nH]c(=O)o2)[C@H](C)c2c(F)ccc(C)c2C)ccc(Cl)c1C(C)O (single isomer, unassigned) [Example 208A] was tested. Which IC50 did it give?
Answer: 100 nM

Question: Cc1ccc(F)c([C@@H](C)[C@H](NS(=O)(=O)c2ccc(Br)cc2OC(F)(F)F)c2n[nH]c(=O)o2)c1C [Example 338, 4-bromo-N-((1S,2R)-(6-fluoro-2,3-dimethylphenyl)-1-(5-oxo-4,5-dihydro-1,3,4-oxadiazol-2-yl)propyl)-2-(trifluoromethoxy)benzenesulfonamide] was tested. Which IC50 did it give?
Answer: 100 nM

Question: How did the IC50 turn out when Cc1ccc(F)c([C@@H](C)[C@H](NS(=O)(=O)c2ccc3[nH]nnc3c2)c2n[nH]c(=O)o2)c1C [Example 181, N-((1S,2R)-2-(6-fluoro-2,3-dimethylphenyl)-1-(5-oxo-4,5-dihydro-1,3,4-oxadiazol-2-yl)propyl)-1H-benzo[d][1,2,3]triazole-5-sulfonamide] was run?
Answer: 660 nM

Question: For Cc1ccc(F)c([C@@H](C)[C@H](NS(=O)(=O)c2cc(C(C)(C)O)ccc2C(N)=O)c2n[nH]c(=O)o2)c1C [Example 197, 2-(N-((1S,2R)-2-(6-fluoro-2,3-dimethylphenyl)-1-(5-oxo-4,5-dihydro-1,3,4-oxadiazol-2-yl)propyl)sulfamoyl)-4-(2-hydroxypropan-2-yl)benzamide], which IC50 is on record?
Answer: 60 nM

Question: Which IC50 does the source give for Cc1ccc(F)c([C@@H](C)[C@H](NS(=O)(=O)c2ccc3c(c2)C(=O)CCO3)c2n[nH]c(=O)o2)c1C [Example 179, N-((1S,2R)-2-(6-fluoro-2,3-dimethylphenyl)-1-(5-oxo-4,5-dihydro-1,3,4-oxadiazol-2-yl)propyl)-4-oxochroman-6-sulfonamide] here?
Answer: 280 nM

Question: With COc1cc(Cl)ccc1S(=O)(=O)N[C@H](c1n[nH]c(=O)o1)[C@H](C)c1c(F)ccc(-c2ccc(N3CCOCC3)nc2)c1C [Example 315, 4-chloro-N-((1S,2R)-2-(6-fluoro-2-methyl-3-(6-morpholinopyridin-3-yl)phenyl)-1-(5-oxo-4,5-dihydro-1,3,4-oxadiazol-2-yl)propyl)-2-methoxybenzenesulfonamide] as the compound, how does the IC50 read?
Answer: 190 nM

Question: For COc1cc(Cl)ccc1S(=O)(=O)N[C@H](c1n[nH]c(=O)o1)[C@H](C)c1c(F)ccc(-c2ccn(C)n2)c1C [Example 305, 4-chloro-N-((1S,2R)-2-(6-fluoro-2-methyl-3-(1-methyl-1H-pyrazol-3-yl)phenyl)-1-(5-oxo-4,5-dihydro-1,3,4-oxadiazol-2-yl)propyl)-2-methoxybenzenesulfonamide], which IC50 is on record?
Answer: 240 nM

Question: Cc1ccc(F)c([C@@H](C)[C@H](NS(=O)(=O)c2ccc(Cl)cc2C(=O)N2CCC2)c2n[nH]c(=O)o2)c1C [Example 247, 2-(azetidine-1-carbonyl)-4-chloro-N-((1S,2R)-2-(6-fluoro-2,3-dimethylphenyl)-1-(5-oxo-4,5-dihydro-1,3,4-oxadiazol-2-yl)propyl)benzenesulfonamide] was tested. Which IC50 did it give?
Answer: 410 nM

Question: For COc1cc(Cl)ccc1S(=O)(=O)N[C@H](c1n[nH]c(=O)o1)[C@H](C)c1c(F)ccc(-c2cncnc2)c1C [Example 318, 4-chloro-N-((1S,2R)-2-(6-fluoro-2-methyl-3-(pyrimidin-5-yl)phenyl)-1-(5-oxo-4,5-dihydro-1,3,4-oxadiazol-2-yl)propyl)-2-methoxybenzenesulfonamide], which IC50 is on record?
Answer: 540 nM

Question: Cc1ccc(S(=O)(=O)N[C@H](c2n[nH]c(=O)o2)[C@H](C)c2c(F)ccc(C)c2C)cc1 [Example 151, N-((1S,2R)-2-(6-fluoro-2,3-dimethylphenyl)-1-(5-oxo-4,5-dihydro-1,3,4-oxadiazol-2-yl)propyl)-4-methylbenzenesulfonamide] was tested. Which IC50 did it give?
Answer: 410 nM

Question: With Cc1ccc(F)c([C@@H](C)[C@H](NS(=O)(=O)c2ccc3[nH]c(=O)[nH]c3c2)c2n[nH]c(=O)o2)c1C [Example 165, N-((1S,2R)-2-(6-fluoro-2,3-dimethylphenyl)-1-(5-oxo-4,5-dihydro-1,3,4-oxadiazol-2-yl)propyl)-2-oxo-2,3-dihydro-1H-benzo[d]imidazole-5-sulfonamide] as the compound, how does the IC50 read?
Answer: 830 nM

Question: How did the IC50 turn out when COc1c(S(=O)(=O)N[C@H](c2n[nH]c(=O)o2)[C@H](C)c2c(F)ccc(C)c2C)ncc(Cl)c1C(C)OC(C)=O (stereo partly drawn) [Example 120, 1-(5-chloro-2-(N-((1S,2R)-2-(6-fluoro-2,3-dimethylphenyl)-1-(5-oxo-4,5-dihydro-1,3,4-oxadiazol-2-yl)propyl)sulfamoyl)-3-methoxypyridin-4-yl)ethylacetate] was run?
Answer: 430 nM

Question: Which IC50 does the source give for CNC(=O)c1nc(S(=O)(=O)N[C@H](c2n[nH]c(=O)o2)[C@H](C)c2c(F)ccc(C)c2C)ccc1Cl [Example 252, 3-chloro-6-(N-((1S,2R)-2-(6-fluoro-2,3-dimethylphenyl)-1-(5-oxo-4,5-dihydro-1,3,4-oxadiazol-2-yl)propyl)sulfamoyl)-N-methylpicolinamide] here?
Answer: 60 nM
